{"source": "patent US10894784B2", "about": "“Heteroarylbenzimidazole compounds” (BAYER PHARMA AKTIENGESELLSCHAFT, priority 2015, dated 2021)", "molecular_target": "TBK1 (Homo sapiens (Human), UniProt Q9UHD2)", "sequence (Q9UHD2 whole entry)": "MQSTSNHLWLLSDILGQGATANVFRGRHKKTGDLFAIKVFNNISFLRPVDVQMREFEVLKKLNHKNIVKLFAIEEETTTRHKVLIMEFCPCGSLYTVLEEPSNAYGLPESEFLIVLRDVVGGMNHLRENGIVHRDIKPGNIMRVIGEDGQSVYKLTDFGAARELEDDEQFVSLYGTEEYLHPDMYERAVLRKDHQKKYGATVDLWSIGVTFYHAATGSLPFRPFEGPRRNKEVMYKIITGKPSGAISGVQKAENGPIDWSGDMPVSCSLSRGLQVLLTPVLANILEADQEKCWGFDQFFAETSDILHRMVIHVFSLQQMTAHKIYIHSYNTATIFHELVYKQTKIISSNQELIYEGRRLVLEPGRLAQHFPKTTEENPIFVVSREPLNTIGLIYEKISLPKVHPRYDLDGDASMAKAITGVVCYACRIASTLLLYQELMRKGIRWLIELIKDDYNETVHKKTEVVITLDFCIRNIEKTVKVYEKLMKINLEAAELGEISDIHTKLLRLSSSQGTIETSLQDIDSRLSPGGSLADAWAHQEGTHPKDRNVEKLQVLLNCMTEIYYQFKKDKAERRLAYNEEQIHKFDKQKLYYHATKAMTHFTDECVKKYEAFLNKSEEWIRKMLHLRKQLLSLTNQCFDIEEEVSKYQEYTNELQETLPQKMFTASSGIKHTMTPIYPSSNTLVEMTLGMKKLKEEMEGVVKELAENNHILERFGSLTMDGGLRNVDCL", "experiment": "TBK1 low ATP kinase assay (in vitro assay 1)", "assay_type": "biochemical", "key": {"[1]": {"settings": "in vitro assay 1, read-out: TBK1 low ATP kinase assay IC50"}}, "note": "Like-named read-outs stand apart in the source and are kept apart here.", "data": [{"smiles": "CC(c1ccnc(Nc2nc3ccc(-c4cnn(C[C@@H]5CC5(Cl)Cl)c4)cc3[nH]2)c1)N1CCN(C(=O)CC(F)(F)F)CC1", "note": "(single isomer, unassigned) [Example 170.02, 1-{4-[(1R or 1S)-1-(2-{[6-(1-{[(1RS)-2,2-dichlorocyclopropyl]methyl}-1H-pyrazol-4-yl)-1H-benzimidazol-2-yl]amino}pyridin-4-yl)ethyl]piperazin-1-yl}-3,3,3-trifluoropropan-1-one]", "values": [{"measurement": "IC50", "setting": "[1]", "result": 5.21, "unit": "nM"}]}, {"smiles": "COc1cncnc1-c1ccc2nc(Nc3cc(C(C)N4CCN(C(=O)CC(F)(F)F)CC4)ccn3)[nH]c2c1", "note": "(single isomer, unassigned) [Example 35.03.01.A, 3,3,3-trifluoro-1-{4-[(1R or 1S)-1-(2-{[6-(5-methoxypyrimidin-4-yl)-1H-benzimidazol-2-yl]amino}pyridin-4-yl)ethyl]piperazin-1-yl}propan-1-one]", "values": [{"measurement": "IC50", "setting": "[1]", "result": 3.85, "unit": "nM"}]}, {"smiles": "O=C(C1CC1)N1CCN(Cc2ccnc(Nc3nc4ccc(-c5cnn(CC6CCC6)c5)cc4[nH]3)c2)CC1", "note": "[Example 59.02.02, (4-{[2-({6-[1-(cyclobutylmethyl)-1H-pyrazol-4-yl]-1H-benzimidazol-2-yl}amino)pyridin-4-yl]methyl}piperazin-1-yl)(cyclopropyl)methanone]", "values": [{"measurement": "IC50", "setting": "[1]", "result": 6.71, "unit": "nM"}]}, {"smiles": "COc1c(NCC2CC2)ncnc1-c1ccc2nc(Nc3cc(CN4CCN(C(=O)CC(F)(F)F)CC4)ccn3)[nH]c2c1", "note": "[Example 109.01.02, 1-[4-({2-[(6-{6-[(cyclopropylmethyl)amino]-5-methoxypyrimidin-4-yl}-1H-benzimidazol-2-yl)amino]pyridin-4-yl}methyl)piperazin-1-yl]-3,3,3-trifluoropropan-1-one]", "values": [{"measurement": "IC50", "setting": "[1]", "result": 5.4, "unit": "nM"}]}, {"smiles": "COc1c(-c2ccc3nc(Nc4cc(C(C)N5CCN(C(=O)OC(C)(C)C)CC5)ccn4)[nH]c3c2)ncnc1N(C)C", "note": "(single isomer, unassigned) [Example 107.02.01, tert-butyl 4-{(1R or 1S)-1-[2-({6-[6-(dimethylamino)-5-methoxypyrimidin-4-yl]-1H-benzimidazol-2-yl}amino)pyridin-4-yl]ethyl}piperazine-1-carboxylate]", "values": [{"measurement": "IC50", "setting": "[1]", "result": 21, "unit": "nM"}]}, {"smiles": "COCc1cc(-c2ccc3nc(Nc4cc(C(C)N5CCN(C(=O)C6CC6)CC5)ccn4)[nH]c3c2)ncn1", "note": "(single isomer, unassigned) [Example 84.03, cyclopropyl(4-{(1R or 1S)-1-[2-({6-[6-(methoxymethyl)pyrimidin-4-yl]-1H-benzimidazol-2-yl}amino)pyridin-4-yl]ethyl}piperazin-1-yl)methanone]", "values": [{"measurement": "IC50", "setting": "[1]", "result": 1.7, "unit": "nM"}]}, {"smiles": "Cc1cc(-c2ccc3nc(Nc4cc(CN5CCN(C(=O)OC(C)(C)C)CC5)ccn4)[nH]c3c2)c(F)cn1", "note": "[Example 131.01, tert-butyl 4-[(2-{[6-(5-fluoro-2-methylpyridin-4-yl)-1H-benzimidazol-2-yl]amino}pyridin-4-yl)methyl]piperazine-1-carboxylate]", "values": [{"measurement": "IC50", "setting": "[1]", "result": 140, "unit": "nM"}]}, {"smiles": "Cc1noc(-c2ccc3nc(Nc4cc(C(C)N5CCN(C(=O)C6(C(F)(F)F)CC6)CC5)ccn4)[nH]c3c2)n1", "note": "(single isomer, unassigned) [Example 16.06.04, {4-[(1R or 1S)-1-(2-{[6-(3-methyl-1,2,4-oxadiazol-5-yl)-1H-benzimidazol-2-yl]amino}pyridin-4-yl)ethyl]piperazin-1-yl}[1-(trifluoromethyl)cyclopropyl]methanone]", "values": [{"measurement": "IC50", "setting": "[1]", "result": 21.7, "unit": "nM"}]}, {"smiles": "O=C(C1CC1)N1CCN(Cc2ccnc(Nc3nc4ccc(-c5cnc(Cl)nc5)cc4[nH]3)c2)CC1", "note": "[Example 45.02.02, {4-[(2-{[6-(2-chloropyrimidin-5-yl)-1H-benzimidazol-2-yl]amino}pyridin-4-yl)methyl]piperazin-1-yl}(cyclopropyl)methanone]", "values": [{"measurement": "IC50", "setting": "[1]", "result": 380, "unit": "nM"}]}, {"smiles": "O=C(CC(F)(F)F)N1CCN(Cc2ccnc(Nc3nc4ccc(-c5ccnc(C(F)(F)F)n5)cc4[nH]3)c2)CC1", "note": "[Example 27.04, 3,3,3-trifluoro-1-(4-{[2-({6-[2-(trifluoromethyl)pyrimidin-4-yl]-1H-benzimidazol-2-yl}amino)pyridin-4-yl]methyl}piperazin-1-yl)propan-1-one]", "values": [{"measurement": "IC50", "setting": "[1]", "result": 197, "unit": "nM"}]}, {"smiles": "O=C(CC1CC1)N1CCN(Cc2ccnc(Nc3nc4ccc(-c5ccncn5)cc4[nH]3)c2)CC1", "note": "[Example 23.01.01, 2-cyclopropyl-1-{4-[(2-{[6-(pyrimidin-4-yl)-1H-benzimidazol-2-yl]amino}pyridin-4-yl)methyl]piperazin-1-yl}ethanone]", "values": [{"measurement": "IC50", "setting": "[1]", "result": 33.4, "unit": "nM"}]}, {"smiles": "COc1nccc(-c2ccc3nc(Nc4cc(CN5CCN(C(=O)CC6CC6)CC5)ccn4)[nH]c3c2)n1", "note": "[Example 25.01.03, 2-cyclopropyl-1-{4-[(2-{[6-(2-methoxypyrimidin-4-yl)-1H-benzimidazol-2-yl]amino}pyridin-4-yl)methyl]piperazin-1-yl}ethanone]", "values": [{"measurement": "IC50", "setting": "[1]", "result": 96.7, "unit": "nM"}]}, {"smiles": "Cc1noc(-c2ccc3nc(Nc4cc(CN5CCN(C(=O)N6CCCC6)CC5)ccn4)[nH]c3c2)n1", "note": "[Example 101.31, {4-[(2-{[6-(3-methyl-1,2,4-oxadiazol-5-yl)-1H-benzimidazol-2-yl]amino}pyridin-4-yl)methyl]piperazin-1-yl}(pyrrolidin-1-yl)methanone]", "values": [{"measurement": "IC50", "setting": "[1]", "result": 510, "unit": "nM"}]}, {"smiles": "CCOc1cc(-c2ccc3nc(Nc4cc(CN5CCN(C(=O)C6CC6)CC5)ccn4)[nH]c3c2)ncn1", "note": "[Example 161.03, cyclopropyl{4-[(2-{[6-(6-ethoxypyrimidin-4-yl)-1H-benzimidazol-2-yl]amino}pyridin-4-yl)methyl]piperazin-1-yl}methanone]", "values": [{"measurement": "IC50", "setting": "[1]", "result": 6.7, "unit": "nM"}]}, {"smiles": "Cc1noc(-c2ccc3nc(Nc4cc(CN5CCN(C(=O)CC(F)(F)F)C[C@H]5C)ccn4)[nH]c3c2)n1", "note": "[Example 16.03.02, 3,3,3-trifluoro-1-{(3R)-3-methyl-4-[(2-{[6-(3-methyl-1,2,4-oxadiazol-5-yl)-1H-benzimidazol-2-yl]amino}pyridin-4-yl)methyl]piperazin-1-yl}propan-1-one]", "values": [{"measurement": "IC50", "setting": "[1]", "result": 63.1, "unit": "nM"}]}, {"smiles": "Cc1noc(-c2ccc3nc(Nc4cc(CN5CCN(C(=O)c6cccnc6)CC5)ccn4)[nH]c3c2)n1", "note": "[Example 101.26, {4-[(2-{[6-(3-methyl-1,2,4-oxadiazol-5-yl)-1H-benzimidazol-2-yl]amino}pyridin-4-yl)methyl]piperazin-1-yl}(pyridin-3-yl)methanone]", "values": [{"measurement": "IC50", "setting": "[1]", "result": 310, "unit": "nM"}]}, {"smiles": "CCOc1nccc(-c2ccc3nc(Nc4cc(CN5CCN(C(=O)C6CC6)CC5)ccn4)[nH]c3c2)n1", "note": "[Example 26.01.02, cyclopropyl{4-[(2-{[6-(2-ethoxypyrimidin-4-yl)-1H-benzimidazol-2-yl]amino}pyridin-4-yl)methyl]piperazin-1-yl}methanone]", "values": [{"measurement": "IC50", "setting": "[1]", "result": 8.58, "unit": "nM"}]}, {"smiles": "COc1c(-c2ccc3nc(Nc4cc(C(C)N5CCN(C(=O)C6(C(F)(F)F)CC6)CC5)ccn4)[nH]c3c2)ncnc1N(C)C", "note": "(single isomer, unassigned) [Example 107.02.04, (4-{(1R or 1S)-1-[2-({6-[6-(dimethylamino)-5-methoxypyrimidin-4-yl]-1H-benzimidazol-2-yl}amino)pyridin-4-yl]ethyl}piperazin-1-yl)[1-(trifluoromethyl)cyclopropyl]methanone]", "values": [{"measurement": "IC50", "setting": "[1]", "result": 5.2, "unit": "nM"}]}, {"smiles": "CC(c1ccnc(Nc2nc3ccc(-c4cc(OCC(F)(F)C(F)(F)F)ncn4)cc3[nH]2)c1)N1CCN(C(=O)C2(C(F)(F)F)CC2)CC1", "note": "(single isomer, unassigned) [Example 166.04, (4-{(1R or 1S)-1[2-({6-[6-(2,2,3,3,3-pentafluoropropoxy)pyrimidin-4-yl]-1H-benzimidazol-2-yl}amino)pyridin-4-yl]ethyl}piperazin-1-yl)[1-(trifluoromethyl)cyclopropyl]methanone]", "values": [{"measurement": "IC50", "setting": "[1]", "result": 54.2, "unit": "nM"}]}, {"smiles": "COc1c(NC2CCC2)ncnc1-c1ccc2nc(Nc3cc(C(C)N4CCN(C(=O)OC(C)(C)C)CC4)ccn3)[nH]c2c1", "note": "(single isomer, unassigned) [Example 114.01, tert-butyl 4-{(1R or 1S)-1-[2-({6-[6-(cyclobutylamino)-5-methoxypyrimidin-4-yl]-1H-benzimidazol-2-yl}amino)pyridin-4-yl]ethyl}piperazine-1-carboxylate]", "values": [{"measurement": "IC50", "setting": "[1]", "result": 61, "unit": "nM"}]}, {"smiles": "O=C(C1CC1)N1CCN(Cc2ccnc(Nc3nc4ccc(-c5cncnc5)cc4[nH]3)c2)CC1", "note": "[Example 45.01.03, cyclopropyl{4-[(2-{[6-(pyrimidin-5-yl)-1H-benzimidazol-2-yl]amino}pyridin-4-yl)methyl]piperazin-1-yl}methanone]", "values": [{"measurement": "IC50", "setting": "[1]", "result": 205, "unit": "nM"}]}, {"smiles": "Nc1cc(-c2ccc3nc(Nc4cc(CN5CCN(C(=O)C6CC6)CC5)ccn4)[nH]c3c2)ccn1", "note": "[Example 138.03, {4-[(2-{[6-(2-aminopyridin-4-yl)-1H-benzimidazol-2-yl]amino}pyridin-4-yl)methyl]piperazin-1-yl}(cyclopropyl)methanone]", "values": [{"measurement": "IC50", "setting": "[1]", "result": 4.3, "unit": "nM"}]}, {"smiles": "CN(C)c1nccnc1-c1ccc2nc(Nc3cc(CN4CCN(C(=O)C5CC5)CC4)ccn3)[nH]c2c1", "note": "[Example 196.03, cyclopropyl(4-{[2-({6-[3-(dimethylamino)pyrazin-2-yl]-1H-benzimidazol-2-yl}amino)pyridin-4-yl]methyl}piperazin-1-yl)methanone]", "values": [{"measurement": "IC50", "setting": "[1]", "result": 1420, "unit": "nM"}]}, {"smiles": "CC(c1ccnc(Nc2nc3ccc(-c4cnn(CC5CC5)c4)cc3[nH]2)c1)N1CCN(C(=O)CC(F)(F)F)CC1", "note": "(single isomer, unassigned) [Example 39.02.02, 1-(4-{(1R or 1S)-1-[2-({6-[1-(cyclopropylmethyl)-1H-pyrazol-4-yl]-1H-benzimidazol-2-yl}amino)pyridin-4-yl]ethyl}piperazin-1-yl)-3,3,3-trifluoropropan-1-one]", "values": [{"measurement": "IC50", "setting": "TBK1 low ATP kinase assay IC50, in vitro assay 1", "result": 1.8, "unit": "nM"}]}, {"smiles": "CC(c1ccnc(Nc2nc3ccc(-c4cn[nH]c4)cc3[nH]2)c1)N1CCN(C(=O)OC(C)(C)C)CC1", "note": "(single isomer, unassigned) [Example 57.01, tert-butyl 4-[(1R or 1S)-1-(2-{[6-(1H-pyrazol-4-yl)-1H-benzimidazol-2-yl]amino}pyridin-4-yl)ethyl]piperazine-1-carboxylate]", "values": [{"measurement": "IC50", "setting": "[1]", "result": 7.83, "unit": "nM"}]}, {"smiles": "COc1c(-c2ccc3nc(Nc4cc(C(C)N5CCN(C(=O)OC(C)(C)C)CC5)ccn4)[nH]c3c2)ncnc1N1CCC1", "note": "(single isomer, unassigned) [Example 111.01, tert-butyl 4-{(1R or 1S)-1-[2-({6-[6-(azetidin-1-yl)-5-methoxypyrimidin-4-yl]-1H-benzimidazol-2-yl}amino)pyridin-4-yl]ethyl}piperazine-1-carboxylate]", "values": [{"measurement": "IC50", "setting": "[1]", "result": 2.6, "unit": "nM"}]}]}
